Experimental data published in patent US6962931B2, “Self-emulsifying formulations of cholesteryl ester transfer protein inhibitors” (Pfizer Inc., priority 2001, dated 2005).
Read-outs that look alike come from different tables or passages of the source.

Assay: PK in monkeys
Type: in vivo, cynomologous monkeys
Description: Use of an emulsion prepared from crystalline (ethanolate) drug allowed comparible exposures to be achieved to those for more soluble amorphous drug in Miglyol® alone. Excellent dose proportionality was also obtained.

Q: What does the source list for `CCOC(=O)N1c2ccc(C(F)(F)F)cc2[C@@H](N(Cc2cc(C(F)(F)F)cc(C(F)(F)F)c2)C(=O)OC)C[C@H]1CC` [Compound A, [2R,4S] 4-[(3,5-bis-trifluoromethyl-benzyl)-methoxycarbonyl-amino]-2-ethyl-6-trifluoromethyl-3,4-dihydro-2H-quinoline-1-carboxylic acid ethyl ester]?
A: Cmax (crystalline ethanolate, Olive oil/Cremophor/water 40/10/50, 20 mg/kg, 20 mg/kg): 160 ng/mL; Cmax (monkey, in vivo, oral, 20 mg/kg, crystalline ethanolate, Olive oil/Cremophor/water 40/10/50, 20 mg/kg, read-out: Cmax): 100 ng/mL; AUC (monkey, in vivo, oral, 50 mg/kg, crystalline ethanolate, Miglyol/Cremophor/water 40/10/50, 50 mg/kg (BID)): 13000 to 15000 ng·h/mL; Cmax (monkey, in vivo, oral, 50 mg/kg, crystalline ethanolate, Miglyol/Cremophor/water 40/10/50, 50 mg/kg (BID), read-out: Cmax): 800 to 1100 ng/mL; AUC (monkey, in vivo, oral, 100 mg/kg, amorphous anhydrous, Miglyol): ~29000 ng·h/mL; Cmax (monkey, in vivo, oral, 100 mg/kg, amorphous anhydrous, Miglyol, 100 mg/kg, read-out: Cmax): ~1600 ng/mL; Cmax (monkey, in vivo, oral, 100 mg/kg, crystalline ethanolate, Miglyol, 100 mg/kg, read-out: Cmax): ~170 ng/mL; AUC (monkey, in vivo, oral, 100 mg/kg, crystalline ethanolate, Miglyol/Cremophor/water 40/10/50, 100 mg/kg (BID)): 24000 to 29000 ng·h/mL; Cmax (monkey, in vivo, oral, 100 mg/kg, crystalline ethanolate, Miglyol/Cremophor/water 40/10/50, 100 mg/kg (BID), read-out: Cmax): 1600 to 2300 ng/mL; Cmax (monkey, in vivo, oral, 100 mg/kg, crystalline ethanolate, Miglyol/Cremophor/water 40/10/50, 100 mg/kg, read-out: Cmax): 400 to 1800 ng/mL
